What was measured:
Format in all cases: binding, mouse
[1] = test system: monoclonal antibody HB-13 (IgG1, kappa; hybridoma ATCC HB-12167); assay: Competitive indirect ELISA (CI-ELISA), solid-phase antigen HB-SMPB-S-BSA; settings: for average IC50: free competitor in CI-ELISA; for cross-reactivity with the HB-13 antibody: competitor concentration of 50 ppm
Procedure: The supernatant culture fluid from the cloned hybridomas may also be screened to select for those producing antibodies having a high affinity for hygromycin B. Affinity may be measured using a variety of well known techniques, such as ELISA, RIA or equilibrium dialysis using labelled hygromycin B. Competitive indirect ELISA (CI-ELISA) is preferred, and is conducted at a final antibody concentration (dilution from tissue culture supernatant) to give 50% of maximal binding to a hygromycin B coated substrate or assay well. In accordance with this embodiment, the antibody containing supernatant is added to a hygromycin B conjugate-coated solid substrate such as the wells of an assay plate, together with a range of concentrations of free hygromycin B as a competitor. Following incubation and washing, bound antibody in the wells is determined in the same manner as the indirect-ELISA. Percent inhibition may be calculated as (1-B/Bo)×100 where B is the optical density (OD) of a well with a competitor and Bo is the mean OD of the wells without competitor (control). […] However, for even greater accuracy, the affinity may be alternatively measured at 50% inhibition (IC50).
A competitive indirect ELISA (CI-ELISA) was used to determine the sensitivity and specificity of the monoclonal antibodies for binding hygromycin B. Microtiter plates were coated with HB-SMPB-S-BSA (400 ng/well) and blocked with 3% non-fat milk solution as described above. After washing five times with 0.05% Tween 20 in distilled water, 100 μL of hygromycin B standard in assay buffer (0.1M Tris, 0.15M NaCl, 0.05% Tween 20, 1% BSA, pH 7.5) and 100 μL antiserum (diluted 1:60 in assay buffer) were added to each well and incubated for 90 min at 37° C. Unbound antibody was removed by washing five times with the 0.05% Tween 20-water solution. Next, 50 μL of goat anti-mouse IgG-peroxidase conjugate (1:500 dilution) was added to each well. After a 60 min incubation at 37° C., the plates were washed ten times with 0.05% Tween 20, and bound antibody-peroxidase conjugate was determined using ABTS. Absorbance was read at 405 nm.
Each point represents the average of 6 replicates. […] The mean intraassay IC50 coefficient of variation (CV) was 7.8% (n=3), while a mean interassay IC50 coefficient of variation of 7.0% (n=3) was observed. […] HB-13 was also characterized as to its ability to recognize related aminoglycoside antibiotics, including spiramycin, gentamicin, kanamycin, amikacin and tylosin.

[2] = test system: monoclonal antibodies to hygromycin B obtained with the extended immunization protocol (including HB-3, HB-7, HB-13); assay: Competitive indirect ELISA (CI-ELISA); settings: range over antibodies from extended immunization protocol
Procedure: (§1) The supernatant culture fluid from the cloned hybridomas may also be screened to select for those producing antibodies having a high affinity for hygromycin B. Affinity may be measured using a variety of well known techniques, such as ELISA, RIA or equilibrium dialysis using labelled hygromycin B. Competitive indirect ELISA (CI-ELISA) is preferred, and is conducted at a final antibody concentration (dilution from tissue culture supernatant) to give 50% of maximal binding to a hygromycin B coated substrate or assay well. […]
In the extended immunization schedule, female BALB/c mice were immunized with 75 μg ip injections every two weeks for a total of three injections. On day 35, the mice were bled so that serum titers and antibody specificities could be determined. […]
(§2) A competitive indirect ELISA (CI-ELISA) was used to determine the sensitivity and specificity of the monoclonal antibodies for binding hygromycin B. Microtiter plates were coated with HB-SMPB-S-BSA (400 ng/well) and blocked with 3% non-fat milk solution as described above. […] After a 60 min incubation at 37° C., the plates were washed ten times with 0.05% Tween 20, and bound antibody-peroxidase conjugate was determined using ABTS. Absorbance was read at 405 nm. […]

[3] = test system: monoclonal antibodies to hygromycin B obtained with the short immunization protocol; assay: Competitive indirect ELISA (CI-ELISA); settings: range over antibodies from short immunization protocol
Procedure: as §1
In the short immunization schedule, female BALB/c mice (6-8 weeks of age) were injected intraperitoneally (ip) with 75 μg of HB-SMPB-S-OVA (in 0.2 mL physiological saline/RIBI adjuvant). […] One week after the second injection, the mice were bled and serum titers were determined. […]
as §2

Compound	cross-reactivity with the HB-13 antibody [1]	other results
CNC1CC(N)C(O)C(OC2OC(CO)C(O)C3OC4(OC(C(N)CO)C(O)C(O)C4O)OC23)C1O (stereo not drawn) [hygromycin B]		average IC50 ([1]; each point average of 6 replicates): 76.2 ng/well; average IC50 ([1]; same value expressed as ppm): 0.762 ppm; IC50 [2]: 0.7-1 ppm; IC50 [3]: 10-100 ppm
gentamicin	None of these compounds were observed to cross-react	
spiramycin	None of these compounds were observed to cross-react	
NC[C@H]1O[C@H](O[C@H]2[C@H](O)[C@@H](O[C@H]3O[C@H](CO)[C@@H](O)[C@H](N)[C@H]3O)[C@H](N)C[C@@H]2N)[C@H](O)[C@@H](O)[C@@H]1O [kanamycin]	None of these compounds were observed to cross-react	
NCC[C@H](O)C(=O)N[C@@H]1C[C@H](N)[C@@H](O[C@H]2O[C@H](CN)[C@@H](O)[C@H](O)[C@H]2O)[C@H](O)[C@H]1O[C@H]1O[C@H](CO)[C@@H](O)[C@H](N)[C@H]1O [amikacin]	None of these compounds were observed to cross-react	
CC[C@H]1OC(=O)C[C@@H](O)[C@H](C)[C@@H](O[C@@H]2O[C@H](C)[C@@H](O[C@H]3C[C@@](C)(O)[C@@H](O)[C@H](C)O3)[C@H](N(C)C)[C@H]2O)[C@@H](CC=O)C[C@@H](C)C(=O)/C=C/C(C)=C/[C@@H]1CO[C@@H]1O[C@H](C)[C@@H](O)[C@@H](OC)[C@H]1OC [tylosin]	None of these compounds were observed to cross-react	

Source: patent publication US5620890A, “Monoclonal antibodies to hygromycin B and the method of making the same” (The United States of America as represented by the …, priority 1995, dated 1997)
